These results are taken from article doi:10.1101/2025.03.14.643404, “A Bivalent Molecular Glue Linking Lysine Acetyltransferases to Oncogene-induced Cell Death” (bioRxiv, 2025).

Series [1] deals with SUDHL5 cells. The series can be described thus: Cell viability, 72 h compound treatment (PrestoBlue), SUDHL5. It is filed as cell-based, human. As to conditions: SUDHL5, 72 h. On the procedure: Thirty thousand cells were seeded in 100 μl of media per well of a 96-well plate and treated with drug for the indicated times and doses. A resazurin-based indicator of cell health (PrestoBlue; P50200, Thermo Fisher) was added for 1.5 h at 37°C, at which point the fluorescence ratio at 560/590 nm was recorded (Tecan Spark). The background fluorescence was subtracted, and the signal was normalized to DMSO-treated cells. IC50 measurements on cell lines were calculated using at least three biological replicates (separate cell passages). Fit of dose–response curves to data and statistical analysis was performed using GraphPad PRISM using the four-parameter log(inhibitor) vs response function.

Series [2] deals with T1, p300^BD (Homo sapiens, UniProt Q09472).
T1 sequence (Q09472 1049-1156 limits assumed): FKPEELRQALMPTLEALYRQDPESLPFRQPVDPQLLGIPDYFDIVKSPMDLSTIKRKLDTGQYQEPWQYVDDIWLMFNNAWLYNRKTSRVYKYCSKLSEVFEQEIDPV
The series can be described thus: Isothermal calorimetry, p300BD titrations. It is filed as binding. As to conditions: ITC; for Kd: 25 °C. On the procedure: (§1) 12 hours prior to performing ITC, frozen stocks of 6xHis-p300^BD and BCL6^BTB were dialyzed for two hours in ITC buffer at 4°C (50 mM HEPES pH 7.4, 100 μM TCEP, 150 mM NaCl), followed by dialysis in fresh ITC buffer overnight at 4°C to remove glycerol and equalize protein mixtures. Samples were centrifuged at 10,000g for 10 min to remove any precipitate. In all titrations, DMSO was added to protein mixtures to match the DMSO concentration of ligand dissolved in ITC buffer. For binary assays with TCIP3, dialyzed 6xHis-p300^BD or BCL6^BTB were titrated from the syringe into a cell containing TCIP3 dissolved in ITC buffer. For p300 titrations, 50 μM or 25 μM protein was titrated into 5 μM or 2.5 μM, respectively, of TCIP3. For BCL6 titrations, 70 μM or 40 μM protein was titrated into 7 μM or 5 μM, respectively, of TCIP3. For ternary titrations, 20× 6xHis-p300^BD was incubated with 1x TCIP3 in the cell to drive saturation of the binary complex, followed by a titration of 10x BCL6^BTB from the syringe, at 310 rpm stirring at 25°C. The following concentrations were used in each run: 15 μM BCL6^BTB, 30 μM p300, and 1.5 μM TCIP3; 18 μM BCL6 ^BTB, 36 μM 6xHis-p300^BD, and 1.8 μM TCIP3; or 10 μM BCL6 ^BTB, 20 μM 6xHis-p300^BD, and 1 μM TCIP3. Alternatively, 20x BCL6^BTB was incubated with 1x TCIP3 in the cell to drive saturation of the binary complex, followed by a titration of 10× 6xHis-p300^BD from the syringe, at 310 rpm stirring at 25°C. The following concentrations were used in each run: 30 μM BCL6, 15 μM 6xHis-p300^BD, and 1.5 μM TCIP3; 20 μM BCL6 ^BTB, 10 μM 6xHis-p300^BD, and 1 μM TCIP3; or 40 μM BCL6 ^BTB, 20 μM 6xHis-p300^BD, and 2 μM TCIP3. The first one or two injections and outliers from instrument noise were routinely excluded. Data were fit to a one-site model using MicroCal LLC Origin software. The following injection parameters were used for each run: (Total injection number: 35; Cell temp: 25 °C; Ref power: 10; Initial delay: 250 s; stirring speed: 310; Feedback mode: High; volume: 8 μL; Duration: 13.7 s; Filter period: 2; initial injection volume: 2 μL).

Series [3] deals with T2, BCL6^BTB (Homo sapiens, UniProt P41182+Q09472, C67R/C84N/C8Q).
T2 construct: human BCL6 (residues 5–129; Uniprot: P41182); Trx (N, cleaved yes); 6xHis (N, cleaved yes); made in house; host or cells: bacteria (pET-48b(+) vector)
The series can be described thus: Isothermal calorimetry, BCL6BTB titrations. It is filed as binding. Particulars: ITC; for Kd: 25 °C. On the procedure:
as §1

Read-outs that look alike come from different tables or passages of the source.

For the molecule `CNC(=O)COc1cc2cc(Nc3nc(N4CCC(C(=O)N5CCN(CCC(=O)N6CCC(n7nc(N8CCCc9cc(-c%10cnn(C)c%10)c(C(F)F)cc98)c8c7CCN(C(=O)NC)C8)CC6)CC5)CC4)ncc3Cl)cc(OC)c2n(C)c1=O` [TCIP3], in series [1] (Homo sapiens, SU-DHL-5, read-out: IC50 cell viability / antiproliferation), the IC50 amounted to 0.8 nM. Besides, in series [1], the “IC50 cell viability / antiproliferation” value is “sub-nanomolar”. Also, the “times more cytotoxic than either NEG1 or NEG2” value in series [1] is listed as “over 1,000 times”. Moreover, the “times more potent than A-485” value in series [1] is listed as 238 times. For the same molecule, the “times more potent than dCBP-1” value in series [1] turned out to be 12 times. The Kd (usually the equilibrium constant for the complex coming apart) came to 2.37 nM in series [2] (p300BD titrated into BCL6BTB-saturated TCIP3, read-out: Kd, p300 into BCL6:TCIP3 (ternary)); 8.28 nM in series [2] (p300BD titrated into TCIP3, read-out: Kd, binary p300:TCIP3); 265 nM in series [3] (BCL6BTB titrated into TCIP3, read-out: Kd, binary BCL6:TCIP3); 19.8 nM in series [3] (BCL6BTB titrated into p300BD-saturated TCIP3, read-out: Kd, BCL6 into p300:TCIP3 (ternary)). Also, in series [2] (α = Kd binary/Kd ternary), the “α p300 into BCL6:TCIP3” value turned out to be 3.5. Also, the “α BCL6 into p300:TCIP3” value in series [3] (α = Kd binary/Kd ternary) was determined as 13.
